Values of other authors, collected in patent US20150099751A1, “IN SITU GEL LOADED WITH PHOSPHODIESTERASE TYPE V INHIBITORS NANOEMULSION” (KING ABDULAZIZ UNIVERSITY, priority 2013, published 2015).

What was measured:
[1] = test system: male lower urinary tract syndrome (LUTS); conditions: after 12 weeks of treatment
[2] = administration by mouth (orally)
[3] = test system: isolated human corpus cavernosum; conditions: at the recommended doses

- bioavailability [2]: approximately 40%
Compound: CCCc1nn(C)c2c(=O)[nH]c(-c3cc(S(=O)(=O)N4CCN(C)CC4)ccc3OCC)nc12 [Sildenafil, 1[4ethoxy3(6.7dihydro1methyl7oxo3propyl1Hpyrazolo [4,3d]pyrimidin5yl)phenylsulfonyl]4methylpiperazine]
- International Prostate Symptom Score (IPSS) and LUTS-specific quality of life (QoL) score [1]: overall improvement
- direct relaxant effect on the isolated human corpus cavernosum [3]: no direct relaxant effect
